Reference: PubChem BioAssay (NCI)
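Assay format: 96-well plates, 48-hour exposure. Abbreviation: GI50, concentration required for 50% inhibition of growth. At the TGI there is no net growth.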

Legend:
Experiment in all cases: NCI tumour cell line growth inhibition, 48 h
M14 melanoma = tested on: M14 melanoma
HL-60(TB) leukemia = tested on: HL-60(TB) leukemia
CAKI-1 renal = tested on: CAKI-1 renal
NCI-H460 lung = tested on: NCI-H460 lung
OVCAR-5 ovarian = tested on: OVCAR-5 ovarian
CCRF-CEM leukemia = tested on: CCRF-CEM leukemia
786-0 renal = tested on: 786-0 renal
MCF7 breast = tested on: MCF7 breast
COLO 205 colon = tested on: COLO 205 colon
ACHN renal = tested on: ACHN renal
PC-3 prostate = tested on: PC-3 prostate
KM12 colon = tested on: KM12 colon
MDA-MB-231 breast = tested on: MDA-MB-231 breast
NCI-H23 lung = tested on: NCI-H23 lung
BT-549 breast = tested on: BT-549 breast
A498 renal = tested on: A498 renal
SK-MEL-28 melanoma = tested on: SK-MEL-28 melanoma
RPMI-8226 leukemia = tested on: RPMI-8226 leukemia
NCI/ADR-RES ovarian = tested on: NCI/ADR-RES ovarian
SK-MEL-5 melanoma = tested on: SK-MEL-5 melanoma
SK-OV-3 ovarian = tested on: SK-OV-3 ovarian
NCI-H226 lung = tested on: NCI-H226 lung
SN12C renal = tested on: SN12C renal
U251 CNS = tested on: U251 CNS
DU-145 prostate = tested on: DU-145 prostate
A549 NSCLC = tested on: A549 NSCLC
SF-539 CNS = tested on: SF-539 CNS
SF-268 CNS = tested on: SF-268 CNS
MOLT-4 leukemia = tested on: MOLT-4 leukemia
HOP-92 NSCLC = tested on: HOP-92 NSCLC
SF-295 CNS = tested on: SF-295 CNS
T-47D breast = tested on: T-47D breast
UACC-62 melanoma = tested on: UACC-62 melanoma
HT29 colon = tested on: HT29 colon
MALME-3M melanoma = tested on: MALME-3M melanoma
HCT-116 colon = tested on: HCT-116 colon
TK-10 renal = tested on: TK-10 renal
RXF 393 renal = tested on: RXF 393 renal
EKVX NSCLC = tested on: EKVX NSCLC
NCI-H522 lung = tested on: NCI-H522 lung
HOP-62 NSCLC = tested on: HOP-62 NSCLC
SNB-19 CNS = tested on: SNB-19 CNS
HS 578T breast = tested on: HS 578T breast
HCT-15 colon = tested on: HCT-15 colon
SK-MEL-2 melanoma = tested on: SK-MEL-2 melanoma
SR leukemia = tested on: SR leukemia
K-562 leukemia = tested on: K-562 leukemia
SNB-75 CNS = tested on: SNB-75 CNS
HCC-2998 colon = tested on: HCC-2998 colon
OVCAR-4 ovarian = tested on: OVCAR-4 ovarian
IGROV1 ovarian = tested on: IGROV1 ovarian
UO-31 renal = tested on: UO-31 renal
OVCAR-8 ovarian = tested on: OVCAR-8 ovarian
UACC-257 melanoma = tested on: UACC-257 melanoma
MDA-MB-435 = tested on: MDA-MB-435
SW-620 colon = tested on: SW-620 colon

## COc1ccc(Cn2cc3c(c2-c2cc(OC)c(OC)c(OC)c2)CCc2c(CN4CCCC4)noc2-3)cc1
M14 melanoma
  GI50: 0.582 µM
  TGI: 10.6 µM
HL-60(TB) leukemia
  GI50: 0.317 µM
  TGI: 1.28 µM
CAKI-1 renal
  GI50: 0.451 µM
  TGI: 20.2 µM
NCI-H460 lung
  GI50: 0.566 µM
  TGI: 12.6 µM
OVCAR-5 ovarian
  GI50: 3.2 µM
  TGI: > 100 µM
CCRF-CEM leukemia
  GI50: 0.727 µM
  TGI: > 100 µM
786-0 renal
  GI50: 0.997 µM
  TGI: 21.9 µM
MCF7 breast
  GI50: 0.325 µM
  TGI: 20 µM
COLO 205 colon
  GI50: 0.941 µM
  TGI: 5.49 µM
ACHN renal
  GI50: 0.634 µM
  TGI: 36.5 µM
PC-3 prostate
  GI50: 0.636 µM
  TGI: > 100 µM
KM12 colon
  GI50: 12.6 µM
  TGI: 81.2 µM
MDA-MB-231 breast
  GI50: 3.05 µM
  TGI: 15.2 µM
NCI-H23 lung
  GI50: 2.8 µM
  TGI: > 100 µM
BT-549 breast
  GI50: 2.47 µM
  TGI: 14.3 µM
A498 renal
  GI50: 0.78 µM
  TGI: 6.38 µM
SK-MEL-28 melanoma
  GI50: 11.5 µM
  TGI: 29.6 µM
RPMI-8226 leukemia
  GI50: 1.27 µM
  TGI: 9.04 µM
NCI/ADR-RES ovarian
  GI50: 0.55 µM
  TGI: 11.2 µM
SK-MEL-5 melanoma
  GI50: 1.02 µM
  TGI: 11.9 µM
SK-OV-3 ovarian
  GI50: 6.7 µM
  TGI: > 100 µM
NCI-H226 lung
  GI50: 2.07 µM
  TGI: 30.3 µM
SN12C renal
  GI50: 4.43 µM
  TGI: 78 µM
U251 CNS
  GI50: 0.543 µM
  TGI: 21.1 µM
DU-145 prostate
  GI50: 4 µM
  TGI: > 100 µM
A549 NSCLC
  GI50: 1.33 µM
  TGI: > 100 µM
SF-539 CNS
  GI50: 0.753 µM
  TGI: 4.46 µM
SF-268 CNS
  GI50: 3.15 µM
  TGI: 29.8 µM
MOLT-4 leukemia
  GI50: 1.47 µM
  TGI: 32.8 µM
HOP-92 NSCLC
  GI50: 1.35 µM
  TGI: 12 µM
SF-295 CNS
  GI50: 0.461 µM
  TGI: 12.4 µM
T-47D breast
  GI50: 2.65 µM
  TGI: 48 µM
UACC-62 melanoma
  GI50: 0.545 µM
  TGI: 22.7 µM
HT29 colon
  GI50: 0.398 µM
  TGI: 12.6 µM
MALME-3M melanoma
  GI50: 0.496 µM
  TGI: 21.4 µM
HCT-116 colon
  GI50: 0.466 µM
  TGI: 14.9 µM
TK-10 renal
  GI50: 23.4 µM
  TGI: > 100 µM
RXF 393 renal
  GI50: 0.893 µM
  TGI: 7.96 µM
EKVX NSCLC
  GI50: 2.11 µM
  TGI: > 100 µM
NCI-H522 lung
  GI50: 0.472 µM
  TGI: 18.9 µM
HOP-62 NSCLC
  GI50: 1.41 µM
  TGI: 32.6 µM
SNB-19 CNS
  GI50: 0.78 µM
  TGI: > 100 µM
HS 578T breast
  GI50: 1.8 µM
  TGI: 27.3 µM
HCT-15 colon
  GI50: 0.475 µM
  TGI: 12.1 µM
SK-MEL-2 melanoma
  GI50: 13.2 µM
  TGI: 41.4 µM
SR leukemia
  GI50: 0.36 µM
  TGI: 13.5 µM
K-562 leukemia
  GI50: 0.348 µM
  TGI: 16.6 µM
SNB-75 CNS
  GI50: 0.668 µM
  TGI: 4.83 µM
HCC-2998 colon
  GI50: 1.84 µM
  TGI: 14.6 µM
OVCAR-4 ovarian
  GI50: 21.4 µM
  TGI: > 100 µM
IGROV1 ovarian
  GI50: 0.892 µM
  TGI: > 100 µM
UO-31 renal
  GI50: 1.16 µM
  TGI: 13.7 µM
OVCAR-8 ovarian
  GI50: 3.27 µM
  TGI: 78.9 µM
UACC-257 melanoma
  GI50: 17 µM
  TGI: 47.7 µM
MDA-MB-435
  GI50: 0.239 µM
  TGI: 0.595 µM
SW-620 colon
  GI50: 0.54 µM
  TGI: 80.3 µM
